Experimental data reported in publication PMC8667816, “VTT-006, an anti-mitotic compound, binds to the Ndc80 complex and suppresses cancer cell growth in vitro” (Oncoscience, 2021).

Tests used:
[1] = biological target: T1, GFP-tagged Ndc80 complex (Ndc80-GFP) (Homo sapiens, UniProt O14777); test: single-molecule TIRF, residence time of Ndc80-GFP on microtubules; format: biochemical; conditions: 10 μM VTT-006; Taxol-stabilized microtubules, BRB80 pH 6.9; Ndc80 6–10 pM
T1 construct: with Kinetochore protein Nuf2; Kinetochore protein Spc25; Kinetochore protein Spc24
T1 sequence (O14777 whole entry): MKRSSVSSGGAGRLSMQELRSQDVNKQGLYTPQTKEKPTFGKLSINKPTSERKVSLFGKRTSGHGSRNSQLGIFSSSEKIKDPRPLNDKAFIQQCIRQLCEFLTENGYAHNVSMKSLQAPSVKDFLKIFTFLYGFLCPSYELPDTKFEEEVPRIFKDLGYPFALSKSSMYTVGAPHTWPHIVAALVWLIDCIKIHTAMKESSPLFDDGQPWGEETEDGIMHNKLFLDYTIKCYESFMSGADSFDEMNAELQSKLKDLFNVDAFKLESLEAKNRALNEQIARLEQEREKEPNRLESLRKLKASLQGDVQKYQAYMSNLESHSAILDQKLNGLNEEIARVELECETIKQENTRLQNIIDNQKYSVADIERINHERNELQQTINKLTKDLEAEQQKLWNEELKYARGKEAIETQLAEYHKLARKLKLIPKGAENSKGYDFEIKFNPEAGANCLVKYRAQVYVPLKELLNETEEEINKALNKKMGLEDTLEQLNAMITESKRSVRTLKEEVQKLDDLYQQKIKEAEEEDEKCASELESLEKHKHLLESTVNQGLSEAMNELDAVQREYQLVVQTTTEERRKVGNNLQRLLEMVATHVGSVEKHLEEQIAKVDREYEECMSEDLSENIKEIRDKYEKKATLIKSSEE
T1 sequence (Q9BZD4 whole entry partner): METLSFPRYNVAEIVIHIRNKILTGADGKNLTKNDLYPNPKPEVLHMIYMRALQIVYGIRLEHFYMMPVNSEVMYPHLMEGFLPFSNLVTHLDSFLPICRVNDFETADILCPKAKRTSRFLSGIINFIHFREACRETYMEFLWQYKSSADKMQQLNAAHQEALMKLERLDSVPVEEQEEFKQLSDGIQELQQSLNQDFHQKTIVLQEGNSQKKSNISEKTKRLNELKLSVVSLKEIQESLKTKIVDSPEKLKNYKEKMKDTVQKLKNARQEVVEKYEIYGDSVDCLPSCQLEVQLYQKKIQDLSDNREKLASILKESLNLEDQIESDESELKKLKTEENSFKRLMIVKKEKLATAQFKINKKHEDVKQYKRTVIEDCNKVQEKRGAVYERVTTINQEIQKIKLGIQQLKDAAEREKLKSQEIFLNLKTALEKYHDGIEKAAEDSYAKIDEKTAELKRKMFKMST
T1 sequence (Q8NBT2 whole entry partner): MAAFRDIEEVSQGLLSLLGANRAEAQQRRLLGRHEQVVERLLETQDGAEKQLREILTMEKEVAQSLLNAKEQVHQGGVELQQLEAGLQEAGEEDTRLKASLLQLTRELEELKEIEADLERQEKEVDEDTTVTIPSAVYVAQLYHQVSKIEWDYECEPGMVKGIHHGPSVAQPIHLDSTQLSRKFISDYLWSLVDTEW
T1 sequence (Q9HBM1 whole entry partner): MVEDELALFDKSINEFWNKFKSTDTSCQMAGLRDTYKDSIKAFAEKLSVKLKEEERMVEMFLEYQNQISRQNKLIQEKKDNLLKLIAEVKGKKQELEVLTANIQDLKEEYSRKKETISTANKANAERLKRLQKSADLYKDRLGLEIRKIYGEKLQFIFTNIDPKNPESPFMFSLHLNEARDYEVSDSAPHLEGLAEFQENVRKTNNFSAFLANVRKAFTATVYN

[2] = biological target: T2, recombinant Ndc80 complex (Bonsai; Ndc80^bonsai) (Homo sapiens, UniProt O14777); test: fluorescence anisotropy of the compound (ex […] nm, em […] nm); format: binding; conditions: PBS, 23 °C; 5 μM VTT-006, 1–15 μM protein; one site model with ligand depletion
T2 construct: Ndc80 bonsai: globular domains with shortened rod; plasmid from A. Musacchio; E. coli BL21(DE3), GST cut off with PreScission; with Kinetochore protein Nuf2; Kinetochore protein Spc25; Kinetochore protein Spc24
T2 sequence (O14777 1-286 limits assumed): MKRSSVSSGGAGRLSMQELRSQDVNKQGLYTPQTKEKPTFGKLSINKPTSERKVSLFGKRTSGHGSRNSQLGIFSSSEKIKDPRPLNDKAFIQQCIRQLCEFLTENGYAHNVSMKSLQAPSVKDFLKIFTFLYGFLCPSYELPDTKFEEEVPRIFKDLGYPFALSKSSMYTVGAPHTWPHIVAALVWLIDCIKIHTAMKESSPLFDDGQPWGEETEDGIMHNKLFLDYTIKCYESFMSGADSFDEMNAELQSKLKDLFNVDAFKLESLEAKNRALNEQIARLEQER
T2 sequence (Q9BZD4 1-169 partner limits assumed): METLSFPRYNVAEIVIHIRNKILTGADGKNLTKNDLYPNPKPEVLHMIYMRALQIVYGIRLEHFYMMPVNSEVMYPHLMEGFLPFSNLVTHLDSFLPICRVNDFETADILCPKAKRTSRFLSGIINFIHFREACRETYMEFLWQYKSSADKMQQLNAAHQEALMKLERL
T2 sequence (Q9HBM1 118-224 partner limits assumed): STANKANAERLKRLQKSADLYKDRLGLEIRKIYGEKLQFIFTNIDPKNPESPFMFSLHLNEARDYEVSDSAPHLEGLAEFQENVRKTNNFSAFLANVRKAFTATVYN
T2 sequence (Q8NBT2 122-197 partner limits assumed): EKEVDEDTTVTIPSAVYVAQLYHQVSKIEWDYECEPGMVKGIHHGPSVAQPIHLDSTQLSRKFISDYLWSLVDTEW

How did the koff [1] turn out when CC#CC(=O)N1CCc2c([nH]c3ccccc23)C1c1ccc(OC)c(C)c1 (stereo not drawn) [VTT-006, 2-(2-butynoyl)-1-(4-methoxy-3-methylphenyl)-2,3,4,9-tetrahydro-1H-beta-carboline] was run?
The koff was “residence time of Ndc80-GFP on microtubules was significantly shorter in the presence of VTT-006”.

What about the Kd [2] of the same compound?
The Kd was 2.07 ± 2.84 µM.
